Where a name gives a salt, the structure may show the parent alone. Read-outs that look alike come from different tables or passages of the source.
Experiments:
[1] = Pharmacokinetic study of 10 major BYQZF components in plasma (UPLC-MS/MS); conditions: for MRT last: MRT(0-t); for pharmacokinetics in MPTP + BYQZF group compared with BYQZF without MPTP group: p < 0.05
Method: (§1) 6‐week‐old male C57BL/6J mice (20 ± 2 g; n = 6 per group) were orally administered the herbal decoction (BYQZF) at a dose of 5 g crude drug/kg. The administration volume was 10 mL/kg, and the concentration of the drug solution was 0.5 g/mL. Plasma samples were collected on day 14 after 14 consecutive days of drug administration. […] The supernatant samples were collected after centrifugation (5000 rpm, 10 min) and stored at −80°C immediately until analysis.
(§2) Each 100 μL plasma aliquot obtained at predetermined intervals was supplemented with 5 μL of internal standard solution (IS, 1 μg/mL) and 10 μL enzymatic hydrolysis cocktail (β‐glucuronidase/sulfatase mixture: 200 U/2 U enzymatic activity). The mixture underwent vortex mixing followed by 1‐h enzymatic digestion at physiological temperature (37°C). Subsequent protein precipitation was achieved through methanol addition (300 μL) with vigorous shaking. After phase separation by centrifugation (5000 rpm, 5 min), the organic supernatant was carefully decanted and subjected to nitrogen‐stream evaporation until completely dry. The residue was then reconstituted in 100 μL of mobile phase consisting of aqueous 0.1% FA‐ACN (v:v = 95:5) using ultrasonic‐assisted dissolution. Prior to UPLC‐MS/MS analysis, the final solution underwent high‐speed clarification centrifugation (13,000 rpm, 10 min) to remove particulate matter. The drug concentration‐time profiles were constructed, and pharmacokinetic parameters were analyzed using DAS 3.2.8 software.

[2] = mouse, in vivo, po
Method: as §1, §2

[3] = system: Nrf2/GPX4 pathway; set-up: method as in PMID 39631720, PMID 27632381; conditions: PD models ref 40, 41; cited from earlier work
[4] = system: SH-SY5Y cells; test: Annexin V-PE apoptosis detection (flow cytometry) in MPP+-treated SH-SY5Y cells; type: cell-based, human; conditions: Control siRNA; 1 mM MPP+ alone or followed by 4 μg/mL BYQZF 48 h; control cells 1.65%
Method: The experiment used the human neuroblastoma SH‐SY5Y cell line to construct a stable transfected cell line. Cells were grown in a 1:1 MEM/F12 medium blend with added 15% fetal bovine serum for nutritional support. To avoid bacterial contamination, 500 IU/mL of penicillin and 500 μg/mL of streptomycin were incorporated. Cells were cultured at 37°C with 5% CO2 to maintain a pH of 7.2–7.4. The cell passage ratio was 1:2 to 1:4, and medium was replaced every 48–72 h to maintain the cells in the logarithmic growth phase. Routine testing confirmed that the cells were free from mycoplasma, bacterial, and fungal contamination. For cell freezing, a cryopreservation solution consisting of 60% base medium, 30% FBS, and 10% DMSO was used, and cells were stored in liquid nitrogen for long‐term preservation. The human Nrf2 knockdown plasmid, crafted by GeneChem, was used to transfect SH‐SY5Y cells seeded at a concentration of 100,000 cells per milliliter, utilizing the optimal amount of Lipofectamine 3000 (Invitrogen) in accordance with the protocol. 48 h subsequent to transfection, cells were exposed to 1 mM MPP^+ in the culture environment, and subsequently treated with 4 μg/mL BYQZF for another 48 h.

[5] = system: Nrf2/HO-1 pathway; set-up: method as in PMID 27535021; conditions: hydrogen peroxide-induced oxidative stress ref 37; cited from earlier work
[6] = set-up: method as in PMID 28163115; conditions: cited from earlier work
[7] = male, C57BL/6J, mouse, plasma, po, 5 g/kg, AUC(0-t), plasma, oral BYQZF 5 g crude drug/kg, group BYQZF (without MPTP), n=6
[8] = male, C57BL/6J, mouse, plasma, po, 5 g/kg, AUC(0-t), plasma, oral BYQZF 5 g crude drug/kg, group MPTP+BYQZF (PD model mice), n=6
[9] = male, C57BL/6J, mouse, plasma, po, 5 g/kg, Cmax, plasma, oral BYQZF 5 g crude drug/kg, group BYQZF (without MPTP), n=6
[10] = male, C57BL/6J, mouse, plasma, po, 5 g/kg, Cmax, plasma, oral BYQZF 5 g crude drug/kg, group MPTP+BYQZF (PD model mice), n=6
[11] = male, C57BL/6J, mouse, plasma, po, 5 g/kg, plasma, oral BYQZF 5 g crude drug/kg, group BYQZF (without MPTP), n=6
[12] = male, C57BL/6J, mouse, plasma, po, 5 g/kg, plasma, oral BYQZF 5 g crude drug/kg, group MPTP+BYQZF (PD model mice), n=6
[13] = plasma, oral BYQZF 5 g crude drug/kg, group BYQZF (without MPTP), n=6
[14] = plasma, oral BYQZF 5 g crude drug/kg, group MPTP+BYQZF (PD model mice), n=6

O=c1cc[nH]c(=O)[nH]1 [Uracil]
AUC(0-t) [1, 7]: 0.413 ± 0.0753 ng·h/mL | AUC(0-t) [1, 8]: 0.166 ± 0.0638 ng·h/mL | Cmax [1, 9]: 0.23 ± 0.0219 ng/mL | Cmax [1, 10]: 0.0395 ± 0.00762 ng/mL | MRT last [1, 11]: 2.01 ± 1.68 h | MRT last [1, 12]: 2.89 ± 0.17 h

O=c1c(O[C@@H]2O[C@H](CO)[C@H](O)[C@H](O)[C@H]2O)c(-c2ccc(O)c(O)c2)oc2cc(O)cc(O)c12 [Hyperin]
pharmacokinetics in MPTP + BYQZF group compared with BYQZF without MPTP group ([1]; oral BYQZF 5 g crude drug/kg): significantly different | AUC(0-t) [1, 13]: 0.24678 ± 0.01186 ng·h/mL | Cmax [1, 13]: 0.03885 ± 0.01016 ng/mL | MRT(0-t) [1, 13]: 10.94 ± 0.64 h | AUC(0-t) [1, 14]: 0.17287 ± 0.02918 ng·h/mL | Cmax [1, 14]: 0.01989 ± 0.00355 ng/mL | MRT(0-t) [1, 14]: 12.22 ± 2.29 h

C[C@@H]1O[C@@H](O[C@@H]2[C@@H](O)[C@H](OCCc3ccc(O)c(O)c3)O[C@H](COC(=O)/C=C/c3ccc(O)c(O)c3)[C@H]2O)[C@H](O)[C@H](O)[C@H]1O [Isoacteoside]
AUC(0-t) [1, 7]: 2.8 ± 0.138 ng·h/mL | AUC(0-t) [1, 8]: 2.18 ± 0.31 ng·h/mL | Cmax [1, 9]: 0.248 ± 0.0148 ng/mL | Cmax [1, 10]: 0.185 ± 0.00514 ng/mL | MRT last [1, 11]: 7.9 ± 0.47 h | MRT last [1, 12]: 8.87 ± 0.83 h | pharmacokinetics in MPTP + BYQZF group compared with BYQZF without MPTP group ([1]; oral BYQZF 5 g crude drug/kg): significantly different

O=c1c2cc(O)c(O)cc2oc2cc(O)c([C@@H]3O[C@H](CO)[C@@H](O)[C@H](O)[C@H]3O)c(O)c12 [Mangiferol]
pharmacokinetics in MPTP + BYQZF group compared with BYQZF without MPTP group [2]: significantly different

C[C@@H]1O[C@@H](O[C@@H]2[C@@H](O)[C@H](OCCc3ccc(O)c(O)c3)O[C@H](CO)[C@H]2OC(=O)/C=C/c2ccc(O)c(O)c2)[C@H](O)[C@H](O)[C@H]1O [Acteoside]
Nrf2/GPX4 pathway [3]: activate

C[C@H]1[C@H]2[C@H](O[C@@H]3O[C@H](CO)[C@@H](O)[C@H](O)[C@H]3O)OC=C(C(=O)O)[C@H]2C[C@@H]1O [8-Epiloganic acid]
pharmacokinetics in MPTP + BYQZF group compared with BYQZF without MPTP group [2]: significantly different

N[C@@H](CC(=O)N[C@@H](CC(=O)O)C(=O)O)C(=O)O [L-beta-aspartyl-L-aspartic acid]
pharmacokinetics in MPTP + BYQZF group compared with BYQZF without MPTP group ([1]; oral BYQZF 5 g crude drug/kg): significantly different | AUC(0-t) [1, 13]: 0.01864 ± 0.00096 ng·h/mL | Cmax [1, 13]: 0.02274 ± 0.00024 ng/mL | MRT(0-t) [1, 13]: 2.02 ± 2.07 h | AUC(0-t) [1, 14]: 0.01424 ± 0.0026 ng·h/mL | Cmax [1, 14]: 0.00887 ± 0.00191 ng/mL | MRT(0-t) [1, 14]: 2.13 ± 1.32 h

C[n+]1ccc(-c2ccccc2)cc1 [MPP^+, 1‐Methyl‐4‐phenylpyridinium]
proportion of apoptotic cells [4]: 7.95%

COc1ccc2cc3[n+](cc2c1OC)CCc1cc2c(cc1-3)OCO2 [Berberine hydrochloride]
Nrf2/HO-1 pathway [5]: can activate

O=c1c(O)c(-c2ccccc2)oc2ccccc12 [3-Hydroxyflavone]
AUC(0-t) [1, 7]: 0.401 ± 0.0765 ng·h/mL | AUC(0-t) [1, 8]: 0.341 ± 0.0517 ng·h/mL | Cmax [1, 9]: 0.105 ± 0.0146 ng/mL | Cmax [1, 10]: 0.0291 ± 0.00788 ng/mL | MRT last [1, 11]: 5.17 ± 3.67 h | MRT last [1, 12]: 13 ± 1.72 h | pharmacokinetics in MPTP + BYQZF group compared with BYQZF without MPTP group ([1]; oral BYQZF 5 g crude drug/kg): significantly different

N[C@@H](CCC(=O)O)C(=O)O [L-Glutamic acid]
Cmax ([1]; male, C57BL/6J, mouse, in vivo, po, 5 g/kg): 0.0514 ± 0.00766 ng/mL | Cmax ([1]; male, C57BL/6J, mouse, plasma, po, 5 g/kg): 0.0146 ± 0.00047 ng/mL | AUC(0-t) [1, 7]: 0.102 ± 0.0119 ng·h/mL | AUC(0-t) [1, 8]: 0.0832 ± 0.0112 ng·h/mL | MRT last [1, 11]: 4.47 ± 1.61 h | MRT last [1, 12]: 4.55 ± 1.19 h

OCC1=C[C@@H](O)[C@]2(O[C@@H]3O[C@H](CO)[C@@H](O)[C@H](O)[C@H]3O[C@@H]3O[C@H](CO)[C@@H](O)[C@H](O)[C@H]3O)C=CO[C@@H](O[C@@H]3O[C@H](CO)[C@@H](O)[C@H](O)[C@H]3O)[C@H]12 [Rehmannioside D]
spontaneous oxidation of endogenous dopamine [6]: inhibit

O[C@H]1[C@H](O)[C@@H](O)[C@H](O)[C@@H](O)[C@H]1O [Inositol]
AUC(0-t) [1, 7]: 0.32 ± 0.0658 ng·h/mL | AUC(0-t) [1, 8]: 0.0615 ± 0.0127 ng·h/mL | Cmax [1, 9]: 0.0582 ± 0.0147 ng/mL | Cmax [1, 10]: 0.0239 ± 0.00194 ng/mL | MRT last [1, 11]: 2.81 ± 0.27 h | MRT last [1, 12]: 11.2 ± 1.23 h

Manninotriose
pharmacokinetics in MPTP + BYQZF group compared with BYQZF without MPTP group [2]: significantly different

Reference: paper PMC12686966, “Da‐Bu‐Yin‐Wan and Qian‐Zheng‐San Alleviate Parkinson's Disease by Activating the Keap1/Nrf2/HO‐1 Pathway to Positively Regulate Oxidative Stress” (CNS Neuroscience & Therapeutics, 2025)
